# From patent US11559522B2, “Methods for enhancing liver regeneration” (The Trustees of the University of Pennsylvania, priority 2016, dated 2023)
# Entries after “also recorded” stand apart in the source; their conditions may differ.
# Key:
# wild-type C57BL/6J mice = experiment: 2/3 partial hepatectomy (PHx) liver regeneration model, NR in the drinking water; format: in vivo, mouse
# From the text: (§1) Animals, housing and drug treatment: Mice overexpressing Nampt in hepatocytes were obtained by crossing animals carrying an exogenous copy of the Nampt cDNA separated from the CAGGS promoter by a foxed stop cassette that were backcrossed to the C57BL/6J background (as described previously^7), with mice carrying Albumin-Cre (JAX strain B6.Cg-Tg(Alb-cre)21Mgn/J, stock number 003574). Littermates lacking Albumin Cre were used as controls. For studies on the adult onset of Nampt overexpression, 8-9 week old male Nampt^fl/fl and Nampt^wt/wt mice were injected with adeno-associated virus in the retroorbital plexus expressing either Cre recombinase (AAV-Cre) or enhanced green fluorescent protein (AAV-Gfp) under the control of thyroxine-binding globulin (Tbg) promoter (AAV-Cre). Nampt^fl/fl mice injected with AAV-Gfp and Namp^wt/wt injected with AAV-Cre served as controls. For inducible deletion of Nampt, mice originally created by Oberdan Leo at Université de Liège and backcrossed to the C57/BL6 background were employed and generously provided by Shin-Ichiro Imai at Washington University. As above, 8-9 week old male mice bearing two floxed alleles were injected retroorbitally with adeno-associated virus expressing either Cre recombinase (AAV-Cre) or enhanced green fluorescent protein (AAV-Gfp) under the control of thyroxine-binding globulin (Tbg) promoter. Fasting blood glucose was measured and partial hepatectomies were performed at >14 days after AAV infection in both the adult onset overexpression and liver-specific knock out cohorts. Animals were housed in groups of 4-5 mice/cage in pathogen-free barrier facility in a 12 h light-dark cycle with free access to food and water. For experiments containing only wild type animals, male C57BL/6J mice were ordered directly from Jackson Labs. For nicotinamide riboside (NR) (Chromadex Inc.) supplementation experiments, NR was dissolved in the drinking water at 3.0 mg/ml in light-protected bottles and was changed every 3 days. For fasting and re-feeding experiments, animals were fasted for 16 h with access to water ad libitum in cages containing Alpha-dri bedding. All animal work was performed in accordance with the U.S. Department of Health and Human Services Guide for the Care and Use of Laboratory Animals and with the approval of the University of Pennsylvania Institutional Animal Care and Use Committee.
# (§2) Partial hepatectomy: 10-14 week old male transgenic mice underwent partial hepatectomy (PHx) according to the protocol of Mitchell and Willenbring between 8 AM and noon. Briefly, after isofluorane anesthesia, a ventral midline incision was made. Then the median and left lateral lobes, comprising 70% of the liver, were resected by pedicle ligation. For EdU (5-ethynyl-2′-deoxyuridine) labeling (Molecular probes), mice were injected intraperitoneally with the labeling reagent at a dose of 16 mg/kg, 5 h before sacrifice. Animals were sacrificed at 36 h or 48 h after PHx, as indicated. The resected and regenerating livers were snap frozen in liquid nitrogen, fixed in 4% paraformaldehyde, embedded in OCT medium (Tissue-TEK O.C.T compound, Sakura), or rapidly frozen in pre-chilled metal clamps in liquid nitrogen for NAD and ATP assays. All surgical procedures involving mice were approved by the Institutional Animal Care and Use Committee protocols of the University of Pennsylvania.
# (§3) Histology, Immunohistochemistry, and Immunofluoresence: Mitotic figures were counted in Hematoxylin and eosin stained slides. Paraffin embedded liver sections of 5 μm thickness were deparaffinized in Xylene followed by rehydration through a graded ethanol series were stained with Gill 3 hematoxylin (Thermo Scientific) and eosin (Sigma). Mitotically active areas were first screened under lower magnification. For quantification, total mitotic counts in 10 high power fields (40×) in the most mitotically active areas were considered. […]
# [1] = test system: hepatocyte-specific Nampt deficient mice; experiment: Partial hepatectomy in hepatocyte-specific Nampt deficient mice (AAV-Cre) and AAV-Gfp littermate controls, with NR; format: in vivo, mouse; conditions: for Liver regeneration (EdU positive hepatocytes, liver to body weight ratio): first 48 hours after PHx, NR ~500 mg/kg/day
# From the text: as §1, §2, §3
# Sirt1 knockout mice = experiment: Partial hepatectomy in Sirt1 knockout mice and littermate controls, with NR; format: in vivo, mouse
# Description: Partial hepatectomy: 10-14 week old male transgenic mice underwent partial hepatectomy (PHx) according to the protocol of Mitchell and Willenbring between 8 AM and noon. Briefly, after isofluorane anesthesia, a ventral midline incision was made. Then the median and left lateral lobes, comprising 70% of the liver, were resected by pedicle ligation. For EdU (5-ethynyl-2′-deoxyuridine) labeling (Molecular probes), mice were injected intraperitoneally with the labeling reagent at a dose of 16 mg/kg, 5 h before sacrifice. Animals were sacrificed at 36 h or 48 h after PHx, as indicated. The resected and regenerating livers were snap frozen in liquid nitrogen, fixed in 4% paraformaldehyde, embedded in OCT medium (Tissue-TEK O.C.T compound, Sakura), or rapidly frozen in pre-chilled metal clamps in liquid nitrogen for NAD and ATP assays. All surgical procedures involving mice were approved by the Institutional Animal Care and Use Committee protocols of the University of Pennsylvania. Histology, Immunohistochemistry, and Immunofluoresence: Mitotic figures were counted in Hematoxylin and eosin stained slides. Paraffin embedded liver sections of 5 μm thickness were deparaffinized in Xylene followed by rehydration through a graded ethanol series were stained with Gill 3 hematoxylin (Thermo Scientific) and eosin (Sigma). Mitotically active areas were first screened under lower magnification. For quantification, total mitotic counts in 10 high power fields (40×) in the most mitotically active areas were considered. Representative photomicrographs were taken at 400× magnification using a light microscope coupled with a digital image acquisition system. For immunofluorescent detection of Nampt expression in paraffin sections, antigens were retrieved in R-buffer (Electron Microscopy Sciences Ct #62706-10) followed by quenching and blocking in Cas-Block (Invitrogen 00-8120) for 20 min. Slides were then incubated overnight at 4° C. in humidified chamber with primary rabbit polyclonal anti-NAMPT antibody (Bethyl Laboratories, dilution 1:1000). Goat anti-rabbit IgG (Alexa Fluor 488) was used as secondary antibody at dilution of 1:600 and slides were counter-stained with DAPI (Vector laboratories). For quantification, cells were examined and imaged using a Zeiss Axioplan 2 imaging system under a 20× objective taking both the central and portal venous areas. Studies were performed to determine the ability of NR to improve liver regeneration in the context of Sirt1 deletion, which impairs this process. Sirt1 knockouts and littermate controls were treated with NR (500 mgs/Kg/day) for 2 weeks prior to partial hepatectomy (PHx). […] In another assay, liver regeneration during the first 36 hour post PHx was compromised in Sirt1 knockout mice and restored by NR treatment. […]
# hepatocyte = conditions: cited from earlier work
# [2] = NR ~500 mg/kg, 48 hours post PHx
# [3] = Sirt1 deficient mice, NR 500 mgs/Kg/day for 2 weeks prior to PHx
smiles,measurement,setting,value
"NC(=O)c1ccc[n+]([C@@H]2O[C@H](CO)[C@@H](O)[C@H]2O)c1 [NR, nicotinamide riboside]","Increase of liver NAD content, pre hepatectomy","wild-type C57BL/6J mice; NR 3 mg/mL in drinking water (~500 mg/kg) for 14 days, pre PHx, vs control mice",~35%
same,"Increase of liver NAD content, post hepatectomy","wild-type C57BL/6J mice; NR 3 mg/mL in drinking water (~500 mg/kg) from 14 days before PHx, 48 hours post PHx, vs control mice",~58%
same,Liver ATP levels,"wild-type C57BL/6J mice; NR treated mice, pre or post hepatectomy, regenerating livers",enhanced
same,"Fatty changes (hepatic steatosis, micro and macro vesicular lipid droplets, hepatic triglyceride accumulation)",wild-type C57BL/6J mice; [2],almost completely absent; also recorded: not evident
same,Hepatocyte proliferation (incorporation of EdU into DNA),wild-type C57BL/6J mice; [2],greatly enhanced
same,Liver mass (liver to body weight ratio) after PHx,wild-type C57BL/6J mice; [2],significant improvement
same,Macroscopic appearance of regenerating livers,"wild-type C57BL/6J mice; NR ~500 mg/kg, 48 hours post PHx, control livers pale, mottled",more uniformly colored
same,"Increase in mitotic activity (mitotic figures, H&E stained sections)","wild-type C57BL/6J mice; NR ~500 mg/kg, 48 hours post PHx, vs control",48%
same,Hepatic steatosis at 36 hours post-PHx,"wild-type C57BL/6J mice; NR-treated mice, 36 hours post-PHx",Some steatosis was visible
same,Mitotic index,"[1]; Nampt KO mice, 48 hours after PHx",largely restored
same,"Liver regeneration (EdU positive hepatocytes, liver to body weight ratio)",[1]; Nampt KO mice,restored
same,"Liver regeneration (EdU positive hepatocytes, liver to body weight ratio)","[1]; Nampt KO mice, listed as nicotinamide riboside",completely rescued
same,Reduction of hepatic triglycerides with NR treatment,"[1]; Nampt fl/fl AAV-Cre mice, 48 hours after PHx",~35%
same,Petechial hemorrhage / pale regenerated livers (macroscopic),"[1]; Nampt fl/fl AAV-Cre mice, NR ~500 mg/kg/day 2 weeks prior to PHx, 48 hours",prevented
same,Hepatic fatty changes in NAMPT deficient regenerating livers (histology),"[1]; Nampt fl/fl AAV-Cre, 48 hours after PHx",nearly normalized
same,Reduction of hepatic triglycerides with NR treatment,"[1]; Nampt fl/fl AAV-Gfp mice, 48 hours after PHx",75%
same,Liver NAD content,"[1]; both genotypes (AAV-Gfp and AAV-Cre), before and after PHx",effectively increased
same,Hepatic lipid accumulation in regenerating wild type livers (histology),"[1]; wild type (AAV-Gfp control) livers, 48 hours after PHx",abolished
same,Acute hepatic steatosis phenotype (H&E sections),Sirt1 knockout mice; [3],partially rescued
same,Hepatic fatty changes,Sirt1 knockout mice; [3],attenuated
same,Liver regeneration during the first 36 hour post PHx,Sirt1 knockout mice; Sirt1 knockout mice,restored
same,Size of the regenerated livers compared to untreated livers,"Sirt1 knockout mice; both wild type and Sirt1 knockout mice, 36 hour post PHx",increase
Oc1ccc(/C=C/c2cc(O)cc(O)c2)cc1 [resveratrol],Hepatocyte replication,hepatocyte,slow
same,Hepatocyte survival in injury models,hepatocyte,improve
